Measurements reported in patent US11384060B2, “Amide compounds and use thereof” (ALPHALA CO., LTD., priority 2017, dated 2022).
Like-named read-outs stand apart in the source and are kept apart here.

How the values were obtained:
[1] = molecular target: T1, glucagon receptor (GCGR) (Homo sapiens, UniProt P47871); experiment: I125-glucagon binding assay (competition, GCGR membrane fractions)
T1 construct: expressed in transfected cells; host or cells: CHO-K1 cells overexpressing GCGR (membrane fractions)
T1 sequence (P47871 26-477): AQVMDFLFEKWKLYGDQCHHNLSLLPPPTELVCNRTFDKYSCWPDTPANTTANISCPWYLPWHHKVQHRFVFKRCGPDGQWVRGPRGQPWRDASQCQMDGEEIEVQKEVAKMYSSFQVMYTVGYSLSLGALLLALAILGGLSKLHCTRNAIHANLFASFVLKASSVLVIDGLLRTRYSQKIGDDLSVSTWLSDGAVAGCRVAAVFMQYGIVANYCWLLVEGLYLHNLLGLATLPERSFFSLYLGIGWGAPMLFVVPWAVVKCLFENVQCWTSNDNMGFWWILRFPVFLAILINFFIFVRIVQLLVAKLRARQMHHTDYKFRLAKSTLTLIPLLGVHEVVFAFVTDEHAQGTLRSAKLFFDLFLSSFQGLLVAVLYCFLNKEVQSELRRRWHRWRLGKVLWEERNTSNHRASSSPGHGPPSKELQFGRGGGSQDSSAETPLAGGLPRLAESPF
How it was run: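 Competition of 0.0625 nM (final) I^125-glucagon for 30 min at 25° C, after 5 min compound preincubation, using 7.5 μg/well GCGR-overexpressing CHO-K1 membranes in 50 mM Tris pH 7.4, 0.5% BSA. Filtration onto PEI-coated GF/B, micro-beta counting, and non-linear regression gave IC50.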

[2] = molecular target: T2, glucagon receptor (GCGR) overexpressed CHO-K1 cells or human primary hepatocytes (Homo sapiens, UniProt P47871); experiment: Glucagon cAMP inhibition assay (Cisbio cAMP Dynamic 2 HTRF); assay type: cell-based
T2 construct: expressed in transfected cells; host or cells: GCGR overexpressed CHO-K1 cells or human primary hepatocytes (endogenous receptor)
T2 sequence (P47871 26-477): as above
How it was run: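 HTRF read-out of glucagon-induced cAMP, with IC50 from non-linear regression. Cells (GCGR CHO-K1 or human primary hepatocytes) in HBSS/0.1% BSA/800 nM IBMX took compound dilutions for 30 min (final DMSO 1%), then EC50-level glucagon for 30 min at room temperature, then a 60 min lysis/detection step.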

Row | Structure (SMILES) | IC50 ([1]; uM) [µM] | IC50 cAMP [2] [µM] | IC50 [1] [µM] | IC50 cAMP ([2]; uM) [µM]
1 | CCOC(=O)CCNC(=O)c1ccc(N[C@@H](Cc2ccccc2)C(=O)Nc2ccc(C(F)(F)F)cc2)cc1 [Compound 24-5, Ethyl (S)-3-(4-((1-oxo-3-phenyl-1-((4-(trifluoromethyl)phenyl)amino)propan-2-yl)amino)benzamido)propanoate] | > 10 | 5.8 | – | –
2 | O=C(O)CCNC(=O)c1ccc(N[C@@H](Cc2ccccc2)C(=O)Nc2ccc(C(F)(F)F)cc2)cc1 [Compound 24-6, (S)-3-(4-((1-oxo-3-phenyl-1-((4-(trifluoromethyl)phenyl)amino)propan-2-yl)amino)benzamido)propanoic Acid] | – | – | 7.4 | >10
3 | CCOC(=O)CCNC(=O)c1ccc(N[C@H](C(=O)Nc2ccc3cc(OC)ccc3c2)[C@@H](C)CC)cc1 [Compound 24-7, Ethyl 3-(4-(((2S,3S)-1-((6-methoxynaphthalen-2-yl)amino)-3-methyl-1-oxopentan-2-yl)amino)benzamido)propanoate] | – | 0.217 | 11.4 | –
4 | CC[C@H](C)[C@H](Nc1ccc(C(=O)NCCC(=O)O)cc1)C(=O)Nc1ccc2cc(OC)ccc2c1 [Compound 24-8, 3-(4-(((2S,3S)-1-((6-methoxynaphthalen-2-yl)amino)-3-methyl-1-oxopentan-2-yl)amino)benzamido)propanoic Acid] | – | – | 1.03 | >10
5 | CCOC(=O)CCNC(=O)c1ccc(N[C@H](CC(C)C)C(=O)Nc2ccc(C(F)(F)F)cc2)cc1 [Compound 24-9, Ethyl (R)-3-(4-((4-methyl-1-oxo-1-((4-(trifluoromethyl)phenyl)amino)pentan-2-yl)amino)benzamido)propanoate] | > 10 | 1.059 | – | –
6 | CC(C)C[C@@H](Nc1ccc(C(=O)NCCC(=O)O)cc1)C(=O)Nc1ccc(C(F)(F)F)cc1 [Compound 24-10, (R)-3-(4-((4-methyl-1-oxo-1-((4-(trifluoromethyl)phenyl)amino)pentan-2-yl)amino)benzamido)propanoic Acid] | – | 30.78 | 5.82 | –
7 | CCOC(=O)CCNC(=O)c1ccc(N[C@H](Cc2ccc(-c3ccc(C(C)(C)C)cc3)cc2)C(=O)Nc2ccc(C(F)(F)F)cc2)cc1 [Compound 24-15, Ethyl (R)-3-(4-((3-(4′-(tert-butyl)-[1,1′-biphenyl]-4-yl)-1-oxo-1-((4-(trifluoromethyl)phenyl)amino)propan-2-yl)amino)benzamido)propanoate] | – | 7.988 | 0.578 | –
8 | CCOC(=O)CCNC(=O)c1ccc(N[C@H](Cc2ccc(-c3ccc(Cl)cc3Cl)cc2)C(=O)Nc2ccc(C(F)(F)F)cc2)cc1 [Compound 24-17, Ethyl (R)-3-(4-((3-(2′,4′-dichloro-[1,1′-biphenyl]-4-yl)-1-oxo-1-((4-(trifluoromethyl)phenyl)amino)propan-2-yl)amino)benzamido)propanoate] | > 30 | 0.1671 | – | –
9 | O=C(O)CCNC(=O)c1ccc(N[C@H](Cc2ccc(-c3ccc(Cl)cc3Cl)cc2)C(=O)Nc2ccc(C(F)(F)F)cc2)cc1 [Compound 24-18, (R)-3-(4-((3-(2′,4′-dichloro-[1,1′-biphenyl]-4-yl)-1-oxo-1-((4-(trifluoromethyl)phenyl)amino)propan-2-yl)amino)benzamido)propanoic Acid] | – | 1.51 | 0.239 | –
10 | CCOC(=O)CCNC(=O)c1ccc(N[C@H](Cc2ccc(-c3cc4ccccc4o3)cc2)C(=O)Nc2ccc(C(F)(F)F)cc2)cc1 [Compound 24-19, Ethyl (R)-3-(4-((3-(4-(benzofuran-2-yl)phenyl)-1-oxo-1-((4-(trifluoromethyl)phenyl)amino)propan-2-yl)amino)benzamido)propanoate] | – | 0.5384 | 1.37 | –
11 | O=C(O)CCNC(=O)c1ccc(N[C@H](Cc2ccc(-c3cc4ccccc4o3)cc2)C(=O)Nc2ccc(C(F)(F)F)cc2)cc1 [Compound 24-20, (R)-3-(4-((3-(4-(benzofuran-2-yl)phenyl)-1-oxo-1-((4-(trifluoromethyl)phenyl)amino)propan-2-yl)amino)benzamido)propanoic Acid] | – | 1.947 | 0.193 | –
12 | CCOC(=O)CCNC(=O)c1ccc(N[C@H](Cc2ccc(-c3cc4ccccc4o3)cc2)C(=O)NC(C)C)cc1 [Compound 24-21, Ethyl (R)-3-(4-((3-(4-(benzofuran-2-yl)phenyl)-1-(isopropylamino)-1-oxopropan-2-yl)amino)benzamido)propanoate] | – | – | 4.1 | >10
13 | CC(C)NC(=O)[C@@H](Cc1ccc(-c2cc3ccccc3o2)cc1)Nc1ccc(C(=O)NCCC(=O)O)cc1 [Compound 24-22, (R)-3-(4-((3-(4-(benzofuran-2-yl)phenyl)-1-(isopropylamino)-1-oxopropan-2-yl)amino)benzamido)propanoic Acid] | – | 9.522 | 17.6 | –
14 | CCOC(=O)CCNC(=O)c1ccc(N[C@H](Cc2ccc(-c3cc4ccccc4o3)cc2)C(=O)Nc2cc(F)cc(F)c2)cc1 [Compound 24-23, Ethyl (R)-3-(4-((3-(4-(benzofuran-2-yl)phenyl)-1-((3,5-difluorophenyl)amino)-1-oxopropan-2-yl)amino)benzamido)propanoate] | – | 9.529 | 0.168 | –
15 | O=C(O)CCNC(=O)c1ccc(N[C@H](Cc2ccc(-c3cc4ccccc4o3)cc2)C(=O)Nc2cc(F)cc(F)c2)cc1 [Compound 24-24, (R)-3-(4-((3-(4-(benzofuran-2-yl)phenyl)-1-((3,5-difluorophenyl)amino)-1-oxopropan-2-yl)amino)benzamido)propanoic Acid] | – | 0.214 | 1.21 | –
16 | CCOC(=O)CCNC(=O)c1ccc(N[C@H](Cc2ccc(-c3ccc(C(C)(C)C)cc3)cc2)C(=O)Nc2ccc(OC(F)(F)F)cc2)cc1 [Compound 24-25, Ethyl (R)-3-(4-((3-(4′-(tert-butyl)-[1,1′-biphenyl]-4-yl)-1-oxo-1-((4-(trifluoromethoxy)phenyl)amino)propan-2-yl)amino)benzamido)propanoate] | – | – | 0.226 | >10
17 | CC(C)(C)c1ccc(-c2ccc(C[C@@H](Nc3ccc(C(=O)NCCC(=O)O)cc3)C(=O)Nc3ccc(OC(F)(F)F)cc3)cc2)cc1 [Compound 24-26, (R)-3-(4-((3-(4′-(tat-butyl)-[1,1′-biphenyl]-4-yl)-1-oxo-1-((4-(trifluoromethoxy)phenyl)amino)propan-2-yl)amino)benzamido)propanoic Acid] | – | 0.8313 | 0.0457 | –
18 | CCOC(=O)CCNC(=O)c1ccc(N[C@H](Cc2ccc(-c3ccc(C(F)(F)F)cc3)cc2)C(=O)Nc2ccc(OC(F)(F)F)cc2)cc1 [Compound 24-27, Ethyl (R)-3-(4-((1-oxo-1-((4-(trifluoromethoxy)phenyl)amino)-3-(4′-(trifluoromethyl)-[1,1′-biphenyl]-4-yl)propan-2-yl)amino)benzamido)propanoate] | – | 0.3185 | 1.28 | –
19 | O=C(O)CCNC(=O)c1ccc(N[C@H](Cc2ccc(-c3ccc(C(F)(F)F)cc3)cc2)C(=O)Nc2ccc(OC(F)(F)F)cc2)cc1 [Compound 24-28, (R)-3-(4-((1-oxo-1-((4-(trifluoromethoxy)phenyl)amino)-3-(4′-(trifluoromethyl)-[1,1′-biphenyl]-4-yl)propan-2-yl)amino)benzamido)propanoic Acid] | – | 1.54 | 0.0465 | –
